US8748088B2, “Methods of monitoring treatment effectiveness in HIV-infected patients receiveing intensified HAART regimens by measuring episomal 2-LTR circles” (University of Massachusetts, priority 2009, dated 2014)

Experiments:
total HIV-1 DNA = assay: Real-time PCR quantification of total HIV-1 DNA in PBMCs of intensified patients; format: in vivo; conditions: throughout the 12 weeks of intensification, p=0.342 signed rank test
From the text: (§1) A total of 69 patients with undetectable plasma viremia (viral load <50 HIV-1 RNA copies/ml) for at least one year were included in this study. All patients were on a suppressive HAART regimen that included 2 nucleoside reverse transcriptase inhibitors, and either a protease inhibitor or a non-nucleoside reverse transcriptase inhibitor. A total of 45 patients were randomized to intensify their HAART with the integrase inhibitor raltegravir for 12 weeks, and 24 patients were included as a control arm. One patient in the control group was lost to follow-up before study initiation. […]
Total viral DNA forms (comprising unintegrated and integrated viral cDNA) were assayed using internal LTR primers (FIG. 2). […] Real-time PCR-based quantification of total HIV-1 DNA was performed as follows. […] A single-step real-time PCR was used to quantify total HIV-1 DNA in a 50 ul PCR reaction mix containing 25 ul of TaqMan® Universal PCR Master Mix (Applied Biosystems), 20 ul of chromosomal HIV-1 DNA and primers and probe that anneal in the 5′ and 3′ end of the R and U5 region of the LTR respectively, as has previously been described (Brussel and Sonigo, J Virol 77, 10119-10124 (2003)) using a forward primer; 5′ GG CTA ACT AGG GAA CCC ACT G 3′ (SEQ ID NO:4) and a reverse primer; 5′ GCTAGAGATTTTCCACACTGACTAA 3′ (SEQ ID NO:5). […] Amplification and calculation of copy number was determined as for 2-LTR DNA. […]

[1] = system: memory CD4+ and activated CD8+ T cells; assay: Flow cytometry analysis of lymphocyte subsets and immune activation in fresh blood; format: in vivo, HIV-1 infected patients
Experimental: Analysis of lymphocyte subsets and immune activation was performed as follows. A total of 52 patients, 34 in the intensification group and 18 patients in the control group, had fresh blood samples available for flow cytometry analysis through the study period. Different combinations of antibodies were used to characterize different lymphocyte subsets: combination 1 was designed to evaluate naïve/memory subsets and contained CD45RA-FITC, CD31-PE, CD38-PerCP, CD3-APC-Cy7, CD4-APC and CD8-PE-Cy7; combination 2 was designed to evaluate the activation of CD8 T cells and contained HLA-DR-FITC, PD-1-PE, CD38-PerCP, CD45RO-APC, CD3-APC-Cy7 and CD8-PE-Cy7. Controls with combinations of CD3-APC-Cy7, CD4-APC and CD8-PE-Cy7 antibodies were performed for all samples. All antibodies were obtained from Becton Dickinson. Briefly, 20 ul of fresh whole blood was incubated with antibodies for 15 min at room temperature with the different antibody combinations in V-bottom 96-well plates. Red cells were lysed using the BD FACs lysing solution (Becton Dickinson), washed once with PBS and resuspended in PBS containing 1% formaldehyde. Acquisition of flow cytometry data was performed on an LSRII flow cytometer (Becton Dickinson) coupled with a HTS loader. At least 30,000 lymphocytes were collected for each sample. Analyses were performed with FlowJo software (Tree Star Inc.).
(§2) Statistical analysis for the above-described experiments was performed as follows. […] In each group longitudinal changes of total and integrated HIV-1 and immune activation parameters were assessed through the signed rank test (paired test) comparing weeks 0 and 12, or weeks 0 and 24 respectively. Differences in proportions between groups were analyzed through the Pearson's chi square, considering the continuity correction or the Fisher's exact test, as appropriate. Within the intensified arm, differences in 2-LTR circles at weeks 2 and 4 compared to baseline were analyzed using Peto-Prentice-Wilcoxon test. […]

integrated HIV-1 DNA = assay: Two-step Alu-LTR real-time PCR quantification of integrated HIV-1 DNA in PBMCs of intensified patients; format: in vivo; conditions: for levels of integrated HIV-1 DNA: throughout the 12 weeks of intensification, p=0.768 signed rank test
From the text: A total of 69 patients with undetectable plasma viremia (viral load <50 HIV-1 RNA copies/ml) for at least one year were included in this study. All patients were on a suppressive HAART regimen that included 2 nucleoside reverse transcriptase inhibitors, and either a protease inhibitor or a non-nucleoside reverse transcriptase inhibitor. A total of 45 patients were randomized to intensify their HAART with the integrase inhibitor raltegravir for 12 weeks, and 24 patients were included as a control arm. One patient in the control group was lost to follow-up before study initiation. A second patient also in this group, who had two consecutive viral load measurements at weeks 12 and 24 (90 and 63 HIV-1 copies/mL respectively), was excluded for further analysis.
HIV-1 DNA purification was isolated as previously described (Hunt et al., J Infect Dis 187, 1534-1543 (2003)) with some modifications. […]
Real-time PCR-based quantification of integrated HIV-1 DNA was performed as follows. […] A two-step real-time PCR was used to quantitate integrated HIV-1 DNA using Alu-LTR primers as has previously been described (Brussel and Sonigo, J Virol 77, 10119-10124 (2003)). […] The fluorescence taqman probe was 5′[…] […]
Amplification and calculation of copy number was determined as for 2-LTR DNA. […] Integrated proviral DNA was measured using LTR-Alu primers. […]
as §2

HIV-1 2-LTR circles = assay: Real-time PCR quantification of episomal HIV-1 DNA (2-LTR circles) in PBMCs of HAART-suppressed patients intensified with raltegravir; format: in vivo
From the text: as §1
The samples included in this study were drawn from HIV-1 infected patients who were longitudinally monitored for up to 12 weeks. […]
In the formation of 2-LTR circles, U3 and U5 sequences within the 5′ and 3′ LTRs ligate to form a unique U3-U5 circle junction that is not represented in other forms of viral cDNA (FIG. 1A). Therefore, 2-LTR circles were specifically measured by real-time PCR with primers flanking the 2-LTR circle junction. […]
Real-time PCR-based quantification of HIV-1 2-LTR circles was performed as follows. […] A single-step, real-time PCR was used to quantify 2-LTR circles in a 50 ul PCR reaction mix containing 25 ul of TaqMan® Universal PCR Master Mix (Applied Biosystems), 20 ul of extrachromosomal HIV-1 DNA and primers and probe that span the 2-LTR circle junction. […]

[2] = raltegravir-intensified group as a whole, throughout the study period (weeks 0-24)

In the case of Cc1nnc(C(=O)NC(C)(C)c2nc(C(=O)NCc3ccc(F)cc3)c(O)c(=O)n2C)o1 [raltegravir], the “levels of total HIV-1 DNA” value (total HIV-1 DNA) is reported as “remained stable”, the “levels of total HIV-1 DNA” value (total HIV-1 DNA; listed as Raltegravir) is reported as “did not cause significant fluctuations” and the immune activation ([1]; patients in which raltegravir impacted active replication (2-LTR+ subgroup, n=13)) is reported as “normalization of immune activation”. The “activated CD8+ T cells” value [1, 2] was “no major changes”, the “memory CD4+ T cells (CD4+CD45RA-)” value [1, 2] was “no major changes” and the “patients from whom integrated HIV-1 DNA was amplified” value (integrated HIV-1 DNA; intensified patients 39/45, any time point after initiation of the study) was 87%. For the same compound, the “levels of integrated HIV-1 DNA” value (integrated HIV-1 DNA) was “remained stable”, the “levels of integrated HIV-1 DNA” value (integrated HIV-1 DNA; listed as Raltegravir) was “did not cause significant fluctuations” and the “patients with detectable 2-LTR circles (active replication revealed)” value (HIV-1 2-LTR circles; HAART intensified with raltegravir for 12 weeks, n=45, any time point during the study, 13/45, control 0/22, p=0.003) was 29%. For the same compound, the “change in 2-LTR circles compared to baseline” value (HIV-1 2-LTR circles; intensification group, weeks 2 and 4 vs baseline (p=0.036 and p=0.023), subsequent decrease afterwards) was “significant and transient increase in 2-LTR circles”.
